Assay results reported in patent EP4019017A1, “COMPOSITION COMPRISING MELATONIN, PIPERINE AND VITAMIN D, CONTROLLED-RELEASE FORMULATION AND USE THEREOF FOR THE TREATMENT OF SLEEP DISORDERS” (Uriach Consumer Healthcare, S.L., priority 2020, dated 2022).
Where two headings read alike, the source gives them in different places.

How the values were obtained:
[1] = tested on: Intestinal cells (Caco-2); test: Intestinal cells - cell viability; assay type: cell-based; set-up: unit not given here
Description: For this purpose, intestinal barrier model (transwell, patented model from Novara University, Italy) is used to determine the rate of passage and therefore to estimate a better pass-effect of melatonin in combination with piperine and vitamin D than melatonin alone. In this phase, vitality will also be assessed in the presence of the treatments alone and in combination with melatonin, in addition to melatonin alone. […] A time-dependent trend can be observed for all tested substances. In addition, substances other than melatonin have an efficacy that resolves within 2-4 hours of treatment.

[2] = cited from earlier work
[3] = tested on: Intestinal cells (Caco-2); test: Intestinal absorption rate, intestinal barrier model (transwell), fluorescent tracer; assay type: in vitro ADME
Description: For this purpose, intestinal barrier model (transwell, patented model from Novara University, Italy) is used to determine the rate of passage and therefore to estimate a better pass-effect of melatonin in combination with piperine and vitamin D than melatonin alone. In this phase, vitality will also be assessed in the presence of the treatments alone and in combination with melatonin, in addition to melatonin alone. […] 3.1.b. Intestinal absorption: to determine speed based on the fluorescent tracer, the percentage velocity calculated with respect to the control.

[4] = Time 1 h, Melatonin 1mM, Piperine 5µM, Vitamin D3 1nM, Vitamin B6 500µM

Question: Which “Cell viability, Average” value [1, 4] does the source give for `COc1ccc2[nH]cc(CCNC(C)=O)c2c1` [Melatonin, N-[2-(5-Methoxy-1H-indol-3-yl)ethyl]acetamide] here?
Answer: 13.375

Question: And the “Cell viability, Average” value ([1]; Time 2 h)?
Answer: 10.905

Question: What about the “Cell viability, Average” value ([1]; Time 3 h) of the same compound?
Answer: 7.57

Question: And the “Cell viability, Average” value ([1]; Time 4 h)?
Answer: 6.965

Question: What about the “Cell viability, Average” value ([1]; Time 5 h) of the same compound?
Answer: 2.57

Question: What about the “Cell viability, Average” value ([1]; Time 6 h) of the same compound?
Answer: 1.005

Question: With `O=C(/C=C/C=C/c1ccc2c(c1)OCO2)N1CCCCC1` [Piperine, (2E,4E)-5-(2H-1,3-Benzodioxol-5-yl)-1-(piperidin-1-yl)penta-2,4-dien-1-one] as the compound, how does the “Cell viability, Average” value [1, 4] read?
Answer: 6.37

Question: And the “Cell viability, Average” value ([1]; Time 2 h)?
Answer: 30.25

Question: What about the “Cell viability, Average” value ([1]; Time 3 h) of the same compound?
Answer: 21.625

Question: And the “Cell viability, Average” value ([1]; Time 4 h)?
Answer: 14.125

Question: And the “Cell viability, Average” value ([1]; Time 5 h)?
Answer: 12.32

Question: And the “Cell viability, Average” value ([1]; Time 6 h)?
Answer: 6.74

Question: And the solubility ([2]; in alcohol)?
Answer: soluble

Question: And the solubility ([2]; in water)?
Answer: insoluble

Question: For `Cc1ncc(CO)c(CO)c1O.Cl` [Vitamin B6, Pyridoxine HCI], which “Cell viability, Average” value [1, 4] is on record?
Answer: 11.985

Question: What about the “Cell viability, Average” value ([1]; Time 2 h) of the same compound?
Answer: 5.215

Question: And the “Cell viability, Average” value ([1]; Time 3 h)?
Answer: 5.965

Question: And the “Cell viability, Average” value ([1]; Time 4 h)?
Answer: 9.105

Question: What about the “Cell viability, Average” value ([1]; Time 5 h) of the same compound?
Answer: 3.565

Question: What about the “Cell viability, Average” value ([1]; Time 6 h) of the same compound?
Answer: 4.8

Question: With `C=C1CC[C@H](O)C/C1=C/C=C1\CCC[C@]2(C)[C@@H]([C@H](C)CCCC(C)C)CC[C@@H]12` [Vitamin D3] as the compound, how does the “Cell viability, Average” value [1, 4] read?
Answer: 6.91

Question: And the “Cell viability, Average” value ([1]; Time 2 h)?
Answer: 14.185

Question: And the “Cell viability, Average” value ([1]; Time 3 h)?
Answer: 18.32

Question: What about the “Cell viability, Average” value ([1]; Time 4 h) of the same compound?
Answer: 16.325

Question: What about the “Cell viability, Average” value ([1]; Time 5 h) of the same compound?
Answer: 9.315

Question: And the “Cell viability, Average” value ([1]; Time 6 h)?
Answer: 0.78

Question: What about the “Speed (percentage velocity calculated with respect to the control)” value ([3]; Time 2 h) of the same compound?
Answer: 15.00%

Question: And the “Speed (percentage velocity calculated with respect to the control)” value ([3]; Time 3 h)?
Answer: 19.00%

Question: What about the “Speed (percentage velocity calculated with respect to the control)” value ([3]; Time 4 h) of the same compound?
Answer: 17.00%

Question: And the “Speed (percentage velocity calculated with respect to the control)” value ([3]; Time 5 h)?
Answer: 13.00%

Question: And the “Speed (percentage velocity calculated with respect to the control)” value ([3]; Time 6 h)?
Answer: 10.00%

Question: What about the “Speed (percentage velocity calculated with respect to the control)” value ([3]; time 1 h) of the same compound?
Answer: 10.00%

Question: And the “Speed (percentage velocity calculated with respect to the control)” value ([3]; time point printed as 30)?
Answer: 8.00%
